Measured values reported in patent US10603273B2, “Membrane-adherent self-assembled systems for treatment of ocular disorders” (Integral Biosystems LLC, priority 2014, dated 2020).
Values after ≈ are worked out from the molar mass of the structure shown. Where two headings read alike, the source gives them in different places.

Columns and labels:
[1] = Solubility of API in Phase I excipient mixtures; format: physicochemical
Experimental: Solubility of APIs were examined in different Phase I mixtures.
Initially, the solubility of fluticasone propionate was determined in 10 g of Phase I composed of a 7:3 (w/w) mixture of PHOSAL™ Medium Chain Triglycerides (“MCT”) and polyethylene glycol-400 (PEG-400). MCT, a mixture of phosphatidylcholine and medium chain triglycerides, is the hydrophobic component and PEG-400 is the hydrophilic component in this exemplary Phase I. MCT and PEG-400 were added into a glass vial and the mixture was vortexed for 2 min until the components formed a homogeneous mixture. Fluticasone propionate was added in an incremental manner and stirred at 850 rpm using a Scilogex MSH 280 Pro hot stir plate at a temperature of 37° C. Stirring was continued until saturation solubility was reached.
In order to increase the solubility of the fluticasone propionate in Phase I, mineral oil (Drakeol 600LT) was added into the composition. A Phase I containing MCT: PEG-400: mineral oil weight ratio of 7:2:1 was prepared as described above. The total amount of Phase I was 10 g. Fluticasone propionate was added in an incremental manner and the mixture was stirred for 5 min. and vortexed for 5 min after each addition of fluticasone propionate into the mixture. In this Phase I, 98.2 mg of fluticasone propionate dissolved completely in 37 min.
Another Phase I mixture containing PEG-400, polypropylene glycol (PPG), and cremophor in a weight ratio 2.9:7:0.1 was also evaluated. Cremophor was used because it is widely used as a co-solvent to enhance the solubility of poorly soluble drugs.
In this Phase I, 200.30 mg of fluticasone propionate was completely dissolved in 10 g when stirred at 1200 rpm for 2 min at 45° C.
Another Phase I mixture was produced containing 30% w/w PEG-400, 60% w/w PPG, 5% w/w MCT, 0.25% w/w cetyl alcohol, and 4.75% w/w ethanol. In 10 g of this Phase I, 180 mg fluticasone propionate dissolved completely after stirring at 1280 rpm for 15 min at 45° C.
Triamcinolone acetonide is a […] anti-inflammatory drug having low aqueous solubility.
A Phase I containing 30% w/w PEG-400, 20% w/w PPG, 0.5% w/w cetyl alcohol, 9.5% w/w ethanol, 5% w/w MCT and 35% w/w Castor oil was produced. Triamcinolone acetonide was added incrementally and the mixture stirred at 840 rpm using a Scilogex MSH 280 Pro set to 45° C.

[2] = In-vitro drug release, dialysis device, 1% HP-β-CD phosphate buffer pH 7.4, 37° C.; format: in vitro ADME; conditions: 0.1% nanostructured dispersion; released over 3 hours
Experimental: In-vitro drug release was determined at 37° C., pH 7.4 as follows: The Phase III dispersion (1 g) was transferred into a Spectra/Pore Float-A-Lyzer G2 dialysis device, which was then placed into a 50 mL locking centrifuge tube containing 40 g of 1% hydroxylpropyl-β-cyclodextrin (HP-β-CD) in phosphate buffer at pH 7.4, 37° C. The entire assembly was loaded onto a Robbins Scientific Model 400 rotating incubator. At each time point, 1 mL of sample was retrieved and fresh buffer added to replace the volume removed. Samples were measured for drug content using HPLC at λmax=239 nm.

[3] = Solubility of fluticasone propionate in nanostructured dispersions and single excipients; format: physicochemical; conditions: for solubility: oil or lipid
Experimental: Phase I was prepared containing PEG-400 at 20%, PPG at 10%, cetyl alcohol at 10%, MCT at 1%, PEG-stearate at 7%, poloxamer 407 at 2.22%, tyloxapol at 1%, polysorbate 80 at 1%, castor oil at 38%, and fluticasone propionate at 1-2%.
The composition of Phase II was sodium phosphate monobasic (0.017%), sodium phosphate dibasic (0.052%), sodium hyaluronate (0.15%), and dH2O (99.78%).
Phase I was mixed with Phase II at a weight ratio of 1:9.
The concentration of fluticasone propionate achievable in this formulation was 0.1-0.2%.
The solubility of fluticasone propionate in cetyl alcohol was 0.3 mg/ml. As just described, the final dispersion has a fluticasone propionate concentration of 1-2 mg/ml (0.1-0.2%).
In this example, cholesterol was added to obtain a higher concentration of hydrophobic excipients. The composition of Phase I was PEG-400 (20%), PPG (10%), cetyl alcohol (10%), cholesterol (2%), MCT (10%), PEG-stearate (5%), poloxamer 407 (2.22%), tyloxapol (1%), polysorbate 80 (1%), castor oil (36.9%), and fluticasone propionate (1-5%).
The final concentration of fluticasone propionate achievable in this formulation is 0.1-0.5% The maximum amount of fluticasone propionate expected to be solubilized by adding up the amount solubilized in each separate excipient is 0.06%.

[4] = Particle size distribution (Horiba particle size analyzer); format: physicochemical; conditions: nanodispersion of the named drug, drug delivery platform of Example 1
Experimental: Particle sizing was carried out by adding approximately 20 μL of the Phase III dispersion in a solution of 2% w/w glycerin, 0.1% w/w sodium pyrophosphate decahydrate. Particle size distribution of the Phase III nano-dispersions were measured using a Horiba LA-950V2 particle size analyzer at room temperature, i.e., 22-25° C.

freshly excised cornea = experiment: Ex-vivo corneal permeability, Franz-Cell diffusion chamber; format: in vitro ADME, calf; conditions: % of applied drug in 22 hours, 37° C.
Source text: Ex-vivo corneal permeability testing is a useful tool to screen formulations for their ability to penetrate ocular tissues. Using freshly excised cornea, formulations can be tested for their ability to diffuse across the cornea membrane. The ability to diffuse through biological membranes is directly related to the formulation excipients, its physical state (e.g., suspension, solution, emulsion, dispersion) and its partition coefficient (P) and log P. Fresh calf eyes were obtained from a nearby slaughterhouse and the corneas carefully excised using sterile technique. The corneas must be freshly excised and used within 1-2 hours. The corneas were excised in a sterilized laminar flow hood, in a Class 100 environment. The excisions were performed by first draining the aqueous humor followed by carefully cutting out the cornea using a scalpel for the initial incision; forceps and scissors were used to cut the remaining tissue. […] The volume was recorded, and the remaining cells filled. […] Samples were added in rapid succession by depositing 200 μL of the formulation into each donor chamber using a calibrated pipet and the times recorded. […] The samples were analyzed for API content by HPLC as described above. […] Flux can be calculated by the formula: J=Q/(A·t), where Q is the quantity of compound traversing the membrane in time t, and A is the area of exposed membrane in cm^2. […]

[5] = Encapsulation efficiency (centrifugation, HPLC); format: physicochemical; conditions: 0.1% nanostructured dispersion (Phase III); mg drug per g dispersion
Experimental: Encapsulation efficiency (mg/G) was measured by placing 1.0 g of drug-containing Phase III into a 1.5 mL centrifuge tube and centrifuging it at 6000 rpm for 10 minutes using an Eppendorf Centrifuge 5145D at room temperature. 100 μL of the centrifugate was transferred to an HPLC vial containing 900 μL of 75% acetonitrile/25% water. The samples were measured for concentration of drug, e.g., dexamethasone, by HPLC at λmax=239 nm. The concentration was calculated as mg drug per g of the Phase III dispersion.

Structure (SMILES): CC1(C)O[C@@H]2C[C@H]3[C@@H]4CCC5=CC(=O)C=C[C@]5(C)[C@@]4(F)[C@@H](O)C[C@]3(C)[C@]2(C(=O)CO)O1 [triamcinolone acetonide]
- saturation solubility in Phase I ([1]; in 10 g of Phase I: 30% PEG-400, 20% PPG, 0.5% cetyl alcohol, 9.5% ethanol, 5% MCT, 35% castor oil, 840 rpm, 45° C.): 230 mg

Structure (SMILES): C[C@@H]1C[C@H]2[C@@H]3CCC4=CC(=O)C=C[C@]4(C)[C@@]3(F)[C@@H](O)C[C@]2(C)[C@@]1(O)C(=O)CO [dexamethasone]
- in vitro drug release [2]: at least 25%

Structure (SMILES): CCC(=O)O[C@]1(C(=O)SCF)[C@H](C)C[C@H]2[C@@H]3C[C@H](F)C4=CC(=O)C=C[C@]4(C)[C@@]3(F)[C@@H](O)C[C@@]21C [fluticasone propionate]
- amount completely dissolved in Phase I ([1]; in 10 g of 5% cetyl alcohol in ethanol, 1200 rpm, 2 min, 45° C.): 200.30 mg
- amount dissolved completely in Phase I ([1]; in 10 g of Phase I, MCT:PEG-400:mineral oil 7:2:1, dissolved in 37 min): 98.2 mg
- amount dissolved in Phase I ([1]; in 10 g of Phase I: 30% PEG-400, 60% PPG, 5% MCT, 0.25% cetyl alcohol, 4.75% ethanol, 1280 rpm, 45° C.): 180 mg
- maximum concentration expected from adding the solubilized contribution of each excipient ([3]; Example 8 excipients): 0.05%
- fluticasone propionate concentration of final dispersion ([3]; Example 8 final dispersion): 1 to 2 mg/mL
- concentration of fluticasone propionate achievable in formulation ([3]; Example 8 formulation, Phase I:Phase II 1:9, by weight): 0.1-0.2%
- maximum amount expected to be solubilized by adding up the amount solubilized in each separate excipient ([3]; Example 9 excipients): 0.06%
- final concentration of fluticasone propionate achievable in formulation ([3]; Example 9 formulation with cholesterol, Phase I:Phase II 1:9): 0.1-0.5%
- solubility ([3]; PHOSAL MCT alone, read-out: solubility in MCT): 150 µg/mL (≈ 300 µM)
- solubility ([3]; cetyl alcohol alone, read-out: solubility in cetyl alcohol): 300 µg/mL (≈ 599 µM)
- D50 [4]: 0.141 μm
- D90 [4]: 0.181 μm

Structure (SMILES): CCOC(=O)O[C@]1(C(=O)OCCl)CC[C@H]2[C@@H]3CCC4=CC(=O)C=C[C@]4(C)[C@H]3[C@@H](O)C[C@@]21C [loteprednol etabonate]
- in vitro drug release [2]: 35%
- corneal permeability, drug released into the receptor solution (freshly excised cornea): 36%
- amount of drug encapsulated [5]: 1.24 mg/G
